target: CDK2/Cyclin E1 (Homo sapiens (Human), UniProt P24941); experiment: biochemical; settings: CDK2_Ki (nM), phosphorylated CDK2/Cyclin E1, 150 μM ATP, Morrison tight-binding fit
Method: The assay was initiated with the addition of ATP, following a fifteen minutes pre-incubation of enzyme and inhibitor at room temperature in the reaction mixture. The reaction was stopped after 45 minutes at room temperature by the addition of 50 μL of 80 mM EDTA, pH 7.5.

Question: Which Ki does the source give for `COCCc1cc2cnc(N[C@@H]3CCN(S(C)(=O)=O)C[C@H]3F)nc2n(C2CCCC2)c1=O` (single isomer, unassigned) [Example 159, (+)-8-cyclopentyl-2-{[(3S*,4S*)-3-fluoro-1-(methylsulfonyl)piperidin-4-yl]amino}-6-(2-methoxyethyl)pyrido[2,3-d]pyrimidin-7(8H)-one] here?
Answer: The Ki was 95.2 nM.

Question: `C[C@@]1(O)CCC[C@H]1n1c(=O)ccc2cnc(NC3CCN(S(=O)(=O)NC[C@@H]4CCCO4)CC3)nc21` (single isomer, unassigned) [Example 62, (−)-4-({8-[(1R*,2R*)-2-hydroxy-2-methylcyclopentyl]-7-oxo-7,8-dihydropyrido[2,3-d]pyrimidin-2-yl}amino)-N-[(2S)-tetrahydrofuran-2-ylmethyl]piperidine-1-sulfonamide] was tested. Which Ki did it give?
Answer: Its Ki is 0.35 nM.

Question: With `O=c1ccc2cnc(NC3CCN(S(=O)(=O)C(F)F)CC3)nc2n1C1CCCC1` [Example 14, 8-cyclopentyl-2-({1-[(difluoromethyl)sulfonyl]piperidin-4-yl}amino)pyrido[2,3-d]pyrimidin-7(8H)-one] as the compound, how does the Ki read?
Answer: The Ki was 2.5 nM.

Question: With `Cc1cc2cnc(NC3CCN(S(=O)(=O)NC[C@@H]4CCCO4)CC3)nc2n([C@@H]2CCC[C@@]2(C)O)c1=O` (single isomer, unassigned) [Example 100, (−)-4-({8-[(1R*,2R*)-2-hydroxy-2-methylcyclopentyl]-6-methyl-7-oxo-7,8-dihydropyrido[2,3-d]pyrimidin-2-yl}amino)-N-[(2S)-tetrahydrofuran-2-ylmethyl]piperidine-1-sulfonamide] as the compound, how does the Ki read?
Answer: The Ki was 0.27 nM.

Question: With `C=Cc1cc2cnc(NC3CCN(S(C)(=O)=O)CC3)nc2n(C2CCCC2)c1=O` [Example 138, 8-cyclopentyl-6-ethenyl-2-{[1-(methylsulfonyl)piperidin-4-yl]amino}pyrido[2,3-d]pyrimidin-7(8H)-one] as the compound, how does the Ki read?
Answer: Its Ki is 0.87 nM.

Question: Which Ki does the source give for `Cc1cc2cnc(NC3CCN(S(=O)(=O)NC[C@@H]4CCCO4)CC3)nc2n([C@H]2CCC[C@]2(C)O)c1=O` (single isomer, unassigned) [Example 101, (+)-4-({8-[(1R*,2R*)-2-hydroxy-2-methylcyclopentyl]-6-methyl-7-oxo-7,8-dihydropyrido[2,3-d]pyrimidin-2-yl}amino)-N-[(2S)-tetrahydrofuran-2-ylmethyl]piperidine-1-sulfonamide] here?
Answer: The Ki was 3.59 nM.

Question: `C[C@@]1(O)CCCC1n1c(=O)ccc2cnc(NC3CCN(S(=O)(=O)NC[C@H]4CCCO4)CC3)nc21` (single isomer, unassigned; (-)) [Example 64, (−)-4-({8-[(1R*,2R*)-2-hydroxy-2-methylcyclopentyl]-7-oxo-7,8-dihydropyrido[2,3-d]pyrimidin-2-yl}amino)-N-[(2R)-tetrahydrofuran-2-ylmethyl]piperidine-1-sulfonamide] was tested. Which Ki did it give?
Answer: The Ki was 0.35 nM.

Question: With `C[C@@H]1CCC[C@@H]1n1c(=O)c(Cl)cc2cnc(NC3CCN(S(C)(=O)=O)CC3)nc21` [Example 39, 6-chloro-8-[(1S,2R)-2-methylcyclopentyl]-2-{[1-(methylsulfonyl)piperidin-4-yl]amino}pyrido[2,3-d]pyrimidin-7(8H)-one] as the compound, how does the Ki read?
Answer: Its Ki is 1.28 nM.

Question: How did the Ki turn out when `CNS(=O)(=O)N1CCC(Nc2ncc3ccc(=O)n([C@H]4CCC[C@]4(C)O)c3n2)CC1` (single isomer, unassigned) [Example 57, (+)-4-({8-[(1R*,2R*)-2-hydroxy-2-methylcyclopentyl]-7-oxo-7,8-dihydropyrido[2,3-d]pyrimidin-2-yl}amino)-N-methylpiperidine-1-sulfonamide] was run?
Answer: The Ki was 5.21 nM.

Question: For `C[C@]1(O)CCC[C@@H]1n1c(=O)ccc2cnc(NC3CCN(S(=O)(=O)C(F)(F)F)CC3)nc21` (single isomer, unassigned) [Example 89, (+)-8-[(1R*,2R*)-2-hydroxy-2-methylcyclopentyl]-2-({1-[(trifluoromethyl)sulfonyl]piperidin-4-yl}amino)pyrido[2,3-d]pyrimidin-7(8H)-one], which Ki is on record?
Answer: Its Ki is 17.6 nM.

Question: For `CS(=O)(=O)N1CCC(Nc2ncc3ccc(=O)n([C@@H]4CC[C@@H](O)C4)c3n2)CC1` (single isomer, unassigned) [Example 54, (−)-8-[(1R*,3R*)-3-hydroxycyclopentyl]-2-{[1-(methylsulfonyl)piperidin-4-yl]amino}pyrido[2,3-d]pyrimidin-7(8H)-one], which Ki is on record?
Answer: Its Ki is 1.44 nM.

Question: For `CS(=O)(=O)N1CCC(Nc2ncc3cc(CC(F)F)c(=O)n(C4CCCC4)c3n2)CC1` [Example 149, 8-cyclopentyl-6-(2,2-difluoroethyl)-2-{[1-(methylsulfonyl)piperidin-4-yl]amino}pyrido[2,3-d]pyrimidin-7(8H)-one], which Ki is on record?
Answer: The Ki was 2.29 nM.

Question: With `C=CCc1cc2cnc(NC3CCN(S(C)(=O)=O)CC3)nc2n(C2CCCC2)c1=O` [Example 139, 8-cyclopentyl-2-{[1-(methylsulfonyl)piperidin-4-yl]amino}-6-(prop-2-en-1-yl)pyrido[2,3-d]pyrimidin-7(8H)-one] as the compound, how does the Ki read?
Answer: The Ki was 4.05 nM.

Question: Which Ki does the source give for `C[C@H]1[C@@H](O)CCC[C@@H]1n1c(=O)ccc2cnc(NC3CCN(S(C)(=O)=O)CC3)nc21` (single isomer, unassigned) [Example 222, (+)-8-[(1S*,2R*,3S*)-3-hydroxy-2-methylcyclohexyl]-2-{[1-(methylsulfonyl)piperidin-4-yl]amino}pyrido[2,3-d]pyrimidin-7(8H)-one] here?
Answer: The Ki was 2.06 nM.

Question: For `CS(=O)(=O)N1CC[C@@H](Nc2ncc3cc(CCO)c(=O)n(C4CCCC4)c3n2)[C@H](F)C1` (single isomer, unassigned) [Example 157, (+)-8-cyclopentyl-2-{[(3S*,4S*)-3-fluoro-1-(methylsulfonyl)piperidin-4-yl]amino}-6-(2-hydroxyethyl)pyrido[2,3-d]pyrimidin-7(8H)-one], which Ki is on record?
Answer: Its Ki is 36 nM.

Question: Which Ki does the source give for `CNS(=O)(=O)N1CCC(Nc2ncc3cc(C)c(=O)n([C@@H]4CCC[C@H]4O)c3n2)CC1` [Example 55, 4-({8-[(1R,2R)-2-hydroxycyclopentyl]-6-methyl-7-oxo-7,8-dihydropyrido[2,3-d]pyrimidin-2-yl}amino)-N-methylpiperidine-1-sulfonamide] here?
Answer: The Ki was 4.66 nM.

Question: `C[C@H]1CC[C@@H](O)C[C@@H]1n1c(=O)ccc2cnc(NC3CCN(S(C)(=O)=O)CC3)nc21` [Example 216, 8-[(1S,2S,5R)-5-hydroxy-2-methylcyclohexyl]-2-{[1-(methylsulfonyl)piperidin-4-yl]amino}pyrido[2,3-d]pyrimidin-7(8H)-one] was tested. Which Ki did it give?
Answer: Its Ki is 1.48 nM.

Question: For `Cc1cc2cnc(NC3CCN(S(=O)(=O)NC[C@H]4CCCO4)CC3)nc2n([C@@H]2CCC[C@@]2(C)O)c1=O` (single isomer, unassigned) [Example 102, (−)-4-({8-[(1R*,2R*)-2-hydroxy-2-methylcyclopentyl]-6-methyl-7-oxo-7,8-dihydropyrido[2,3-d]pyrimidin-2-yl}amino)-N-[(2H)-tetrahydrofuran-2-ylmethyl]piperidine-1-sulfonamide], which Ki is on record?
Answer: The Ki was 0.24 nM.

Question: How did the Ki turn out when `CNS(=O)(=O)N1CCC(Nc2ncc3cc(C)c(=O)n([C@H]4CCC[C@H]4C)c3n2)CC1` [Example 43, N-methyl-4-({6-methyl-8-[(1S,2R)-2-methylcyclopentyl]-7-oxo-7,8-dihydropyrido[2,3-d]pyrimidin-2-yl}amino)piperidine-1-sulfonamide] was run?
Answer: Its Ki is 1.56 nM.

Question: How did the Ki turn out when `CNS(=O)(=O)N1CCC(Nc2ncc3cc(C)c(=O)n([C@H]4CCC[C@]4(C)O)c3n2)CC1` (single isomer, unassigned) [Example 95, (+)-4-({8-[(1R*,2R*)-2-hydroxy-2-methylcyclopentyl]-6-methyl-7-oxo-7,8-dihydropyrido[2,3-d]pyrimidin-2-yl}amino)-N-methylpiperidine-1-sulfonamide] was run?
Answer: Its Ki is 1.39 nM.

Question: Which Ki does the source give for `C[C@@H]1[C@H](n2c(=O)ccc3cnc(NC4CCN(S(C)(=O)=O)CC4)nc32)CC[C@@H]1O` (single isomer, unassigned) [Example 208, (−)-8-[(1R*,2R*,3S*)-3-hydroxy-2-methylcyclopentyl]-2-{[1-(methylsulfonyl)piperidin-4-yl]amino}pyrido[2,3-d]pyrimidin-7(8H)-one] here?
Answer: Its Ki is 12.4 nM.

Question: For `CC(=O)c1c(C)c2cnc(NC3CCN(S(C)(=O)=O)CC3)nc2n([C@H]2CCC[C@]2(C)O)c1=O` (single isomer, unassigned) [Example 178, (+)-6-acetyl-8-[(1R*,2R*)-2-hydroxy-2-methylcyclopentyl]-5-methyl-2-{[1-(methylsulfonyl)piperidin-4-yl]amino}pyrido[2,3-d]pyrimidin-7(8H)-one], which Ki is on record?
Answer: The Ki was 9.04 nM.

Question: Which Ki does the source give for `C[C@@H]1[C@H](O)CC[C@H]1n1c(=O)c(CC(F)F)cc2cnc(NC3CCN(S(C)(=O)=O)CC3)nc21` (single isomer, unassigned) [Example 206, (−)-6-(2,2-difluoroethyl)-8-[(1R*,2S*,3R*)-3-hydroxy-2-methylcyclopentyl]-2-{[1-(methylsulfonyl)piperidin-4-yl]amino}pyrido[2,3-d]pyrimidin-7(8H)-one] here?
Answer: The Ki was 0.57 nM.

Question: `Cc1cc2cnc(NC3CCN(S(C)(=O)=O)CC3)nc2n([C@H]2CCC[C@H](O)C2)c1=O` (single isomer, unassigned) [Example 33, (−)-8-[(1R*,3R*)-3-hydroxycyclohexyl]-6-methyl-2-{[1-(methylsulfonyl)piperidin-4-yl]amino}pyrido[2,3-d]pyrimidin-7(8H)-one] was tested. Which Ki did it give?
Answer: The Ki was 42.6 nM.

Question: How did the Ki turn out when `C[C@]1(O)CCC[C@@H]1n1c(=O)ccc2cnc(NC3CCN(S(=O)(=O)NC[C@H]4CCCO4)CC3)nc21` (single isomer, unassigned) [Example 65, (+)-4-({8-[(1R*,2R*)-2-hydroxy-2-methylcyclopentyl]-7-oxo-7,8-dihydropyrido[2,3-d]pyrimidin-2-yl}amino)-N-[(2R)-tetrahydrofuran-2-ylmethyl]piperidine-1-sulfonamide] was run?
Answer: The Ki was 4.85 nM.

Question: For `Cc1cc2cnc(NC3CCN(S(=O)(=O)C(F)F)CC3)nc2n(C2CCCC2)c1=O` [Example 26, 8-cyclopentyl-2-({1-[(difluoromethyl)sulfonyl]piperidin-4-yl}amino)-6-methylpyrido[2,3-d]pyrimidin-7(8H)-one], which Ki is on record?
Answer: The Ki was 3.84 nM.

Question: `C[C@]1(O)CCC[C@@H]1n1c(=O)ccc2cnc(NC3CCN(S(=O)(=O)NC[C@@H]4CCCO4)CC3)nc21` (single isomer, unassigned) [Example 63, (+)-4-({8-[(1R*,2R*)-2-hydroxy-2-methylcyclopentyl]-7-oxo-7,8-dihydropyrido[2,3-d]pyrimidin-2-yl}amino)-N-[(2S)-tetrahydrofuran-2-ylmethyl]piperidine-1-sulfonamide] was tested. Which Ki did it give?
Answer: The Ki was 4.51 nM.

Reference: patent publication US10233188B2, “CDK2/4/6 inhibitors” (priority 2016, dated 2019)
